Experimental data reported in publication PMC8617627, “Novel DYRK1A Inhibitor Rescues Learning and Memory Deficits in a Mouse Model of Down Syndrome” (Pharmaceuticals, 2021).
Where “and” joins values, the source holds several entries; their conditions need not be identical. Identical values can stand only once.

How the values were obtained:
CLK2 = CLK2 (Homo sapiens, UniProt P49760); assay: Kinase profile (33P ATP filter binding); assay type: biochemical; details: read-out: Remaining protein kinase activity
Chain of CLK2 (P49760 whole entry): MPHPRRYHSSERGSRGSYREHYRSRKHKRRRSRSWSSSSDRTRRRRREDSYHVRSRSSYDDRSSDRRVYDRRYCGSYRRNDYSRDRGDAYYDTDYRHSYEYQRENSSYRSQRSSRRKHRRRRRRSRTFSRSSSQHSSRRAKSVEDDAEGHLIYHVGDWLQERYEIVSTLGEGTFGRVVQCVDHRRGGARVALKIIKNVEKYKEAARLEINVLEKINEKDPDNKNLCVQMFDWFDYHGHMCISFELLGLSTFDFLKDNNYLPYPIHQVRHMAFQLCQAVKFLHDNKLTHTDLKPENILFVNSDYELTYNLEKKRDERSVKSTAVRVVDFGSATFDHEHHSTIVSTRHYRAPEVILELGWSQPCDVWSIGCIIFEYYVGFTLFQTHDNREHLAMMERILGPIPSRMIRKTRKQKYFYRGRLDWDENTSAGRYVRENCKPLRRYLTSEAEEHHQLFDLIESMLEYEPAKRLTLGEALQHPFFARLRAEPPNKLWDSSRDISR

DYRK1A = DYRK1A (Homo sapiens, UniProt Q13627); assay: Kinase profile (33P ATP filter binding); assay type: biochemical; details: read-out: Remaining protein kinase activity
DYRK2 = DYRK2 (Homo sapiens, UniProt Q92630); assay: Kinase profile (33P ATP filter binding); assay type: biochemical; details: read-out: Remaining protein kinase activity
Chain of DYRK2 (Q92630 whole entry): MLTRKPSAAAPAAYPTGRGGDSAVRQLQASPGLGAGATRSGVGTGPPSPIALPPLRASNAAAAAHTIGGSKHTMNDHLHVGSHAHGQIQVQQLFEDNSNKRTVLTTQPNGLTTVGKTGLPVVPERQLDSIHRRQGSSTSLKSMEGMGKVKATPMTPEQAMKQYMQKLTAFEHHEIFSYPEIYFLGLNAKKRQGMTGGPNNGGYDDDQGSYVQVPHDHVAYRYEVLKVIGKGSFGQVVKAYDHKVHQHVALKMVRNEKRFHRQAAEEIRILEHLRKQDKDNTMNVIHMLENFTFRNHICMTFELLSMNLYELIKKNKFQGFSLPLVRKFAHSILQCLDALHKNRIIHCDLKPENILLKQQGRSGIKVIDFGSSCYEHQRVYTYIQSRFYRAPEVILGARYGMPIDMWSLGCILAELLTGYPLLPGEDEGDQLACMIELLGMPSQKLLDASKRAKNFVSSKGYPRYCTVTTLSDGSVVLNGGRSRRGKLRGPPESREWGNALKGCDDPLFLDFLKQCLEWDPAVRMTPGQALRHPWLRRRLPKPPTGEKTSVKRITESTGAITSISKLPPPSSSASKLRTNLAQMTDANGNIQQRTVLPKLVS

DYRK3 = DYRK3 (Homo sapiens, UniProt O43781); assay: Kinase profile (33P ATP filter binding); assay type: biochemical; details: read-out: Remaining protein kinase activity
Chain of DYRK3 (O43781 whole entry): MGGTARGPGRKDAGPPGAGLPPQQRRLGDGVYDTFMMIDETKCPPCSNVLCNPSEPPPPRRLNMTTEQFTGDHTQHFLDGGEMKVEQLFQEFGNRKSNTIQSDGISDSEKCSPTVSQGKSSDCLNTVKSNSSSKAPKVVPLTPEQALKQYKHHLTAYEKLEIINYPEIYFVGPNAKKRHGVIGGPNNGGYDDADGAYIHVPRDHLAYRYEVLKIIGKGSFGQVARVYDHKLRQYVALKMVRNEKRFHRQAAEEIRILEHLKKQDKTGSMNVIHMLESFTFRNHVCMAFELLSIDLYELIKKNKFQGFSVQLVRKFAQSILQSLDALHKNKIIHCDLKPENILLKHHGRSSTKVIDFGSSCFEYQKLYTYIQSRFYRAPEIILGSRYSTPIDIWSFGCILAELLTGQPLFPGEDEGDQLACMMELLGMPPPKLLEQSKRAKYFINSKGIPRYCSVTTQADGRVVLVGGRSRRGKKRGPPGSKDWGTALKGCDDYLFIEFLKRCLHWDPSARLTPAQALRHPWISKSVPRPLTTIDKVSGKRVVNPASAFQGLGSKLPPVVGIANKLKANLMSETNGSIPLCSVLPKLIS

FGF-R1 = FGF-R1 (Homo sapiens, UniProt P11362); assay: Kinase profile (33P ATP filter binding); assay type: biochemical; details: read-out: Remaining protein kinase activity
Chain of FGF-R1 (P11362 22-822): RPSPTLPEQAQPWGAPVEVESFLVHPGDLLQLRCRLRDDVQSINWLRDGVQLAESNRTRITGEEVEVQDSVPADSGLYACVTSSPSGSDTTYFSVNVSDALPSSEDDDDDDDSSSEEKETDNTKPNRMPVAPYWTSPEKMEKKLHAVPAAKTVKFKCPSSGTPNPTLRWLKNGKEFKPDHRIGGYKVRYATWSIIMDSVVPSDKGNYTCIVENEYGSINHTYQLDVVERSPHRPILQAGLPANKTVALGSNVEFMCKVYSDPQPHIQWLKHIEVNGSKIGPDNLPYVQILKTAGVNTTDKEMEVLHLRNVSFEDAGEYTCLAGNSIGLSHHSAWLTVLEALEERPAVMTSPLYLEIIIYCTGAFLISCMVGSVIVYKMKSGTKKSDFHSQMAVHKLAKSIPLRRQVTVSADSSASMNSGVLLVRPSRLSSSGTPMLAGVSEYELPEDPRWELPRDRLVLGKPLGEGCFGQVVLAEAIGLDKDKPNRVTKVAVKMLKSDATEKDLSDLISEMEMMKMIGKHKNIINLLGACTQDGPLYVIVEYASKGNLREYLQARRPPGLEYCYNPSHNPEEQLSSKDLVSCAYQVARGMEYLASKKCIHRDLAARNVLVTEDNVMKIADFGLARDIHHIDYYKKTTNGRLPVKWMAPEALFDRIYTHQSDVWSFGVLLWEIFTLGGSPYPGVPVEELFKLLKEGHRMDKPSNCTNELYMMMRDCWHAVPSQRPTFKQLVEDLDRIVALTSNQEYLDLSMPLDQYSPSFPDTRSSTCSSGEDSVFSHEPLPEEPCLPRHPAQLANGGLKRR

GSK3b = GSK3b (Homo sapiens, UniProt P49841); assay: Kinase profile (33P ATP filter binding); assay type: biochemical; details: read-out: Remaining protein kinase activity
Chain of GSK3b (P49841 whole entry): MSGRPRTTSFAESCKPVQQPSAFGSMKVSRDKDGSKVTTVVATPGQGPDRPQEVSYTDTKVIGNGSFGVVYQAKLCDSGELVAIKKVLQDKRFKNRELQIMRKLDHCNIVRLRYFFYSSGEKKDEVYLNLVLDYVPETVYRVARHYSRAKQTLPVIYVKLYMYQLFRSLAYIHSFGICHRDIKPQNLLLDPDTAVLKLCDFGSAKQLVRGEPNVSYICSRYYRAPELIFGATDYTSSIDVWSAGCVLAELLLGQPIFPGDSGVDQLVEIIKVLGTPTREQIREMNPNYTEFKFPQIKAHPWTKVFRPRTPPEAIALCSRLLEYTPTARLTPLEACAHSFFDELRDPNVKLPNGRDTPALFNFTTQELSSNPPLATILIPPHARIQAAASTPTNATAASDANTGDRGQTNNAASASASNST

139-protein kinase panel = assay: Selectivity on protein kinase panel (GINI-index); details: in words
Experimental: The determination of protein kinase inhibition was performed at the International Centre for Kinase Profiling at the University of Dundee, UK. The method used is a radioactive filter binding assay using ^33P ATP as described in the literature [79]. The ATP concentrations were at or below the calculated Km for ATP for each particular kinase.

[1] = Mouse PO pharmacokinetics (plasma and brain); assay type: in vivo; details: for Tmax: po
Experimental: For determining plasma and brain pharmacokinetics blood samples (via cardiac puncture into heparinized tubes and centrifuged for plasma at 4 °C) and brains were terminally sampled at 0.25, 0.5, 1, 2, 3, 4, 6, and 8 h timepoints post dosing. Three animals per timepoint were sampled. The three animals designated for the 8 h timepoint were housed in a metabolism cage post-dosing for collection of urine. All samples were stored at −20 °C pending analysis. Bioanalysis was carried out by UHPLC-TOF mass spectrometry using electrospray ionization against matrix matched calibration lines.
The pharmacokinetic parameters were subsequently calculated by noncompartmental methods.
Samples are prepared by protein precipitation and/or dilution: tissues are homogenized first. Analysis is carried out using a generic internal standard, with matrix-matched calibration standards bracketing the study samples.
Samples were analyzed by high resolution accurate mass UHPLC-TOF MS. […] The mass spectrometer was operated in full scan mode, with positive ion electrospray data acquired over the m/z mass range 100–1000.

[2] = Mouse microsome stability assay; assay type: in vitro ADME; details: microsomes
[3] = Steady state tissue levels after administration in animal food; assay type: in vivo, mouse
From the text: The highest dose provided a continuous concentration of 1.25 μmol/g both in the liver and in the brain and was used in fear conditioning experiments.
Six control euploid mice of the same genetic background as the Ts65Dn mice were used to perform this analysis; two mice per dose and three doses tested.
Prior to contextual fear conditioning experiments, all mice were exposed for three-days to either food mixture alone or food mixture with added PST-001. In addition, the mice continued to consume these same food preparations during the two days necessary to perform the behavioral testing. […] Comparisons between group means were done with Two-way factorial ANOVA, and Fisher protected least significant difference (PLSD) post hoc test was performed for all significant ANOVA (using Statistica version 13, Tibco Software, Palo Alto, CA, USA).

Ts65Dn mice = assay: Contextual fear conditioning; assay type: in vivo
Experimental: The capacity for contextual memory of 10- to 16-week old Ts65Dn mice was compared with age-matched euploid control mice using a fear conditioning protocol. Briefly, the mice were exposed for 3 min to the context test chamber serving as a conditioning stimulus, followed by an electric shock for 2 s representing the unconditioned stimulus. […] Freezing, defined as a species-specific defensive reaction characterized by lack of movement besides respiration and heartbeat, associated with crouching posture, was used as a measure of learning, and assessed for 180 s, every 9 s by two trained observers […] of the mouse genotypes and the pharmacological agent being used.
The capacity for contextual memory of 10- to 16-week-old Ts65Dn mice was compared with age-matched euploid control mice using the same fear conditioning protocol used in a previous work with the drug memantine. Briefly, the mice were exposed for 3 min to the context (Med Associates, St. Albans, VT, Modular Mouse Test Chamber) serving as a conditioning stimulus, followed by an electric shock (2 s, 0.7 mA, constant electric current) representing the unconditioned stimulus. […] Freezing, defined as a species-specific defensive reaction characterized by lack of movement besides respiration and heartbeat, associated with crouching posture, was used as a measure of learning, and assessed for 180 s, every 9 s by two trained observers […] of the mouse genotypes and the pharmacological agent being used. The mean number of observations indicating freezing behavior was expressed as percentage of freezing in relation to the total number of observations. All experiments were video-recorded, for automated video-analysis, confirmation of the trained-observer scores, and archival purposes.
In addition, the mice continued to consume these same food preparations during the two days necessary to perform the behavioral testing.

Rat IV pharmacokinetics = assay type: in vivo; details: after IV bolus 1 mg/kg

COc1ccc2sc(-c3cncc(N)c3)nc2c1 [compound 1, 5-(5-Methoxybenzo[d]thiazol-2-yl)pyridin-3-amine]
remaining activity at 1 µM (CLK2; 1 μM): 23% | remaining activity at 100 µM (CLK2; 100 μM): 1% | remaining activity at 1 µM (DYRK1A; 1 μM): 7% | remaining activity at 100 µM (DYRK1A; 100 μM): 0% | remaining activity at 1 µM (DYRK2; 1 μM): 11% | remaining activity at 100 µM (DYRK2; 100 μM): 1% | remaining activity at 1 µM (DYRK3; 1 μM): 14% | remaining activity at 100 µM (DYRK3; 100 μM): 2% | remaining activity at 1 µM (FGF-R1; 1 μM): 110% | remaining activity at 100 µM (FGF-R1; 100 μM): 91% | remaining activity at 1 µM (GSK3b; 1 μM): 107% | remaining activity at 100 µM (GSK3b; 100 μM): 25% | Selectivity in the protein kinase panel (139-protein kinase panel): high selectivity towards DYRK1A

COc1ccc2sc(-c3cncc(NC(C)=O)c3)nc2c1 [PST-001, N-(5-(5-Methoxybenzo[d]thiazol-2-yl)pyridin-3-yl)acetamide]
Kp ([1]; male, C57BL/6, mouse, brain, 5 mg/kg, at Tmax after PO administration, read-out: brain level as share of the plasma level): 0.5 | Tmax ([1]; male, C57BL/6, mouse, brain, 5 mg/kg, mouse, PO 5 mg/kg): 15 min | Tmax ([1]; male, C57BL/6, mouse, plasma, 5 mg/kg, PO administration): 15 min | Tmax ([1]; male, C57BL/6, mouse, plasma, 5 mg/kg, mouse, PO 5 mg/kg): 60 min | Cmax ([1]; male, C57BL/6, mouse, PO 5 mg/kg, brain): 153 ng/mL | half-life ([1]; male, C57BL/6, mouse, PO 5 mg/kg, brain, read-out: t½ (converted)): 16.2 min | Cmax ([1]; male, C57BL/6, mouse, PO 5 mg/kg, plasma): 76 ng/mL | AUCall ([1]; mouse, PO 5 mg/kg, brain): 189 h ∗ ng/mL | AUCall ([1]; mouse, PO 5 mg/kg, plasma): 89 h ∗ ng/mL | half-life ([2]; read-out: half-life (t½)): 25 min | microsomal CLint ([2]; read-out: intrinsic clearance, Cint): 55 µL/min/mg | continuous (steady state) concentration in the brain ([3]; 100 mg PST-001/kg powdered food): 1.25 µmol/g | steady state brain concentration ([3]; twice-a-day administration in the animal food of 10 mg/kg): 150 ng/mL | steady state plasma level ([3]; twice-a-day administration in the animal food of 10 mg/kg, 10 mg/kg): 76 ng/mL and 0.25 μM | Learning and memory deficits (freezing in context test) (Ts65Dn mice; Ts65Dn mice, PST-001 in the food): completely eliminated the learning and memory deficits | Tolerability (Ts65Dn mice; Ts65Dn mice, chronic oral administration): well tolerated | Percentage of freezing behavior (Ts65Dn mice; control euploid mice, PST-001 in the food): no detectable effects | PST-001 in the urine (Rat IV pharmacokinetics): No PST-001 could be found
